Results reported in patent US9675070B2 (BAYER CROPSCIENCE AG, priority 2013, dated 2017).
Where a name gives a salt, the structure may show the parent alone.

How the values were obtained:
[1] = tested on: L1 larvae of the Australian sheep blowfly (Lucilia cuprina); assay: Lucilia cuprina test (LUCICU); format: in vivo; settings: application rate 100 ppm; minced horsemeat; after 2 days
Description: Lucilia cuprina Test (LUCICU) Solvent: dimethyl sulphoxide To produce a suitable preparation of active compound, 10 mg of active compound are mixed with 0.5 ml of dimethyl sulphoxide, and the concentrate is diluted with water to the desired concentration. About 20 L1 larvae of the Australian sheep blowfly (Lucilia cuprina) are transferred into a test vessel containing minced horsemeat and the active compound preparation of the desired concentration. After 2 days, the kill in % is determined. 100% means that all of the larvae have been killed; 0% means that none of the larvae have been killed.

[2] = tested on: caterpillars of the armyworm (Spodoptera frugiperda); assay: Spodoptera frugiperda spray test (SPODFR); format: in vivo; settings: maize leaf discs, after 7 days
Description: Spodoptera frugiperda—Spray Test (SPODFR)
(§1) Solvents: 78.0 parts by weight of acetone
(§2) • 1.5 parts by weight of dimethylformamide Emulsifier: alkylaryl polyglycol ether
(§3) To produce a suitable preparation of active compound, 1 part by weight of active compound is dissolved using the stated parts by weight of solvent and made up with water comprising an emulsifier concentration of 1000 ppm until the desired concentration is reached. To produce further test concentrations, the preparation is diluted with emulsifier-containing water.
Leaf discs of maize (Zea mays) are sprayed with an active compound preparation of the desired concentration and, after drying, populated with caterpillars of the armyworm (Spodoptera frugiperda).
After 7 days, the efficacy in % is determined. 100% means that all of the caterpillars have been killed; 0% means that none of the caterpillars have been killed.

[3] = tested on: larvae of the mustard beetle (Phaedon cochleariae); assay: Phaedon cochleariae spray test (PHAECO); format: in vivo; settings: Chinese cabbage leaf discs, after 7 days
Description: Phaedon cochleariae—Spray Test (PHAECO)
as §1, §2, §3
After 7 days, the efficacy in % is determined. 100% means that all of the beetle larvae have been killed; 0% means that none of the beetle larvae have been killed.

[4] = tested on: adult cat fleas (Ctenocephalides felis); assay: Ctenocephalides felis oral test (CTECFE); format: in vivo; settings: application rate 100 ppm in citrated cattle blood; after 2 days
Description: Ctenocephalides felis-Oral Test ([…]) Solvent: dimethyl sulphoxide To produce a suitable preparation of active compound, 10 mg of active compound are mixed with 0.5 ml of dimethyl sulphoxide. Dilution with citrated cattle blood gives the desired concentration. About 20 unfed adult cat fleas (Ctenocephalides felis) are placed into a chamber which is closed at the top and bottom with gauze. A metal cylinder whose bottom end is closed with a parafilm is placed onto the chamber. The cylinder contains the blood/active ingredient preparation, which can be imbibed by the fleas through the parafilm membrane. After 2 days, the kill in % is determined. 100% means that all of the fleas have been killed; 0% means that none of the fleas have been killed.

[5] = tested on: engorged adult female cattle ticks (Boophilus microplus); assay: Boophilus microplus injection test (BOOPMI Inj); format: in vivo; settings: application rate 20 μg/animal; injection into abdomen; assessed after 7 days
Description: Boophilus microplus Injection Test (BOOPMI Inj)
Solvent: dimethyl sulphoxide
To produce a suitable preparation of active compound, 10 mg of active compound are mixed with 0.5 ml of solvent, and the concentrate is diluted with solvent to the desired concentration.
1 μl of the active compound solution is injected into the abdomen of 5 engorged adult female cattle ticks (Boophilus microplus). The animals are transferred into dishes and kept in a climate-controlled room.
The activity is assessed after 7 days by laying of fertile eggs. Eggs whose fertility is not visible from the outside are stored in a climate-controlled cabinet until the larvae hatch after about 42 days. An efficacy of 100% means that none of the ticks has laid any fertile eggs; 0% means that all eggs are fertile.

[6] = tested on: greenhouse red spider mite (Tetranychus urticae), OP-resistant; assay: Tetranychus urticae spray test, OP-resistant (TETRUR); format: in vivo; settings: bean leaf discs, after 6 days
Description: Tetranychus urticae—Spray Test, OP-Resistant (TETRUR)
as §1, §2, §3
Discs of bean leaves (Phaseolus vulgaris) which are infested by all stages of the greenhouse red spider mite (Tetranychus urticae) are sprayed with an active compound preparation of the desired concentration.
After 6 days, the efficacy in % is determined. 100% means that all of the spider mites have been killed; 0% means that none of the spider mites have been killed.

[7] = tested on: adult houseflies (Musca domestica); assay: Musca domestica test (MUSCDO); format: in vivo; settings: application rate 100 ppm; after 2 days
Description: Musca domestica Test (MUSCDO) Solvents: dimethyl sulphoxide To produce a suitable preparation of active compound, 10 mg of active compound are mixed with 0.5 ml of dimethyl sulphoxide, and the concentrate is diluted with water to the desired concentration. Vessels containing a sponge treated with sugar solution and the active compound preparation of the desired concentration are populated with 10 adult houseflies (Musca domestica). After 2 days, the kill in % is determined. 100% means that all of the flies have been killed; 0% means that none of the flies have been killed.

[8] = log P determination by HPLC on reversed-phase column (C18), EEC Directive 79/831 Annex V.A8; format: physicochemical; settings: method a): Agilent 1100 LC, Zorbax Eclipse Plus C18, acetonitrile/water with formic acid, gradient 10-95% in 4.25 min, 55° C.
Description: Agilent 1100 LC system; 50*4.6 Zorbax Eclipse Plus C18 1.8 micron; mobile phase A: acetonitrile (0.1% formic acid); mobile phase B: water (0.09% formic acid); linear gradient from 10% acetonitrile to 95% acetonitrile in 4.25 min, then 95% acetonitrile for a further 1.25 min; oven temperature 55° C.; flow rate: 2.0 ml/min. Mass detection is carried out via an Agilend MSD system.
^a)Unless indicated otherwise, the following method was used to determine the log P values and masses: The determination of the given log P values was carried out in accordance with EEC Directive 79/831 Annex V.A8 by HPLC (High Performance Liquid Chromatography) on a reversed-phase column (C18). Agilent 1100 LC system; 50*4.6 Zorbax Eclipse Plus C18 1.8 micron; mobile phase A: acetonitrile (0.1% formic acid); mobile phase B: water (0.09% formic acid); linear gradient from 10% acetonitrile to 95% acetonitrile in 4.25 min, then 95% acetonitrile for a further 1.25 min; oven temperature 55° C.; flow rate: 2.0 ml/min. Mass detection is carried out via an Agilend MSD system. ^b)Note for the alternative method for determining log P values and masses: The stated log P values were determined in accordance with EEC Directive 79/831 Annex V.A8 by HPLC (High Performance Liquid Chromatography) using a reversed-phase column (C18). Waters ACQUITY UPLC-MS system; 2.1*50 mm Zorbax Eclipse Plus C18 1.8 μm 600 bar; injection volume: 0.5 ul about 1000 ppm; mobile phase A: acetonitrile (0.1% formic acid); mobile phase B: water (0.085% formic acid); linear gradient from 10% acetonitrile to 95% acetonitrile in 1.5 min, then 95% acetonitrile for a further 0.5 min; oven temperature 60° C.; flow rate: 1.0 ml/min. Mass detection is carried out via a Waters SQD system.

Structure (SMILES) | kill in % [1] [%] | efficacy in % ([3]; application rate 100 g/ha) [%] | kill in % [4] [%] | efficacy (no laying of fertile eggs) [5] [%] | efficacy in % ([6]; application rate 100 g/ha) [%] | other results
CCC(=O)NCc1cc(-c2ccn(-c3c(C(F)(F)F)c(C(F)(F)C(F)(F)F)nn3C)n2)ccc1F [Id-2] | 90 | 100 | 80 | 90 |  | efficacy in % ([2]; application rate 100 g/ha): 100%
CC(=O)NC(C)c1cccc(-c2cnn(-c3c(C(F)(F)F)c(C(F)(F)C(F)(F)F)nn3C)c2)c1 (stereo not drawn) [Ic-31] |  | 100 |  |  |  | 
CSC(C)C(=O)NCc1cc(-c2cnn(-c3c(C(F)(F)F)c(C(F)(F)C(F)(F)F)nn3C)c2)ccc1F (stereo not drawn) [Ic-30] | 100 |  | 95 | 100 | 100 | 
CCC(=O)NCc1cc(-c2cnn(-c3c(C(F)(F)F)c(C(F)(F)C(F)(F)F)nn3C)n2)ccc1F [If-1] | 100 | 100 | 100 | 100 |  | efficacy in % ([2]; application rate 100 g/ha): 100%; kill in % [7]: 80%
Cn1nc(C(F)(F)C(F)(F)F)c(C(F)(F)F)c1-n1cc(-c2ccc(F)c(CNC(=O)c3ccccc3)c2)cn1 [Ic-14] |  | 100 |  | 100 | 90 | 
CC(=O)NCc1cccc(-c2cn(-c3c(C(F)(F)F)c(C(F)(F)C(F)(F)F)nn3C)nn2)c1 [Ig-6] | 100 | 100 | 100 | 100 |  | 
Cn1nc(C(F)(F)C(F)(F)F)c(C(F)(F)F)c1-n1cc(Br)cn1 [4-bromo-2′-methyl-5′-(pentafluoroethyl)-4′-(trifluoromethyl)-2′H-1,3′-bipyrazole] |  |  |  |  |  | chromatographic logP [8]: 4.17
CCC(=O)NCc1cccc(-c2cn(-c3c(C(F)(F)F)c(C(F)(F)C(F)(F)F)nn3C)nn2)c1 [Ig-4] | 100 | 100 | 100 | 100 | 90 | kill in % [7]: 100%
Cn1nc(C(F)(F)C(F)(F)F)c(C(F)(F)F)c1-n1cc(-c2cccc(CN)c2)cn1 [1-{3-[2′-methyl-5′-(pentafluoroethyl)-4′-(trifluoromethyl)-2′H-1,3′-bipyrazol-4-yl]phenyl}methanamine hydrochloride (1:1)] |  |  |  |  |  | chromatographic logP [8]: 1.93
Cn1nc(C(F)(F)C(F)(F)F)c(C(F)(F)F)c1-n1cc(-c2ccc(F)c(CNC(=O)CC(F)(F)F)c2)cn1 [Ic-5] | 100 | 100 | 100 | 100 | 100 | efficacy in % ([2]; application rate 100 g/ha): 100%; kill in % [7]: 100%
Cn1nc(C(F)(F)C(F)(F)F)c(C(F)(F)F)c1-n1cc(-c2ccc(F)c(CNC(=O)c3cccnc3)c2)cn1 [Ic-15] |  |  |  | 90 | 100 | 
Cn1nc(C(F)(F)C(F)(F)F)c(C(F)(F)F)c1-n1cnc(-c2ccc(F)c(CNC(=O)C3CC3)c2)c1 [Ib-7] |  | 100 |  |  |  | 
Cn1nc(C(F)(F)C(F)(F)F)c(C(F)(F)F)c1-n1cc(-c2cccc(CNC(=O)C3CC3)c2)nn1 [Ig-2] | 100 | 100 | 100 | 100 |  | kill in % [7]: 100%
Cn1nc(C(F)(F)C(F)(F)F)c(C(F)(F)F)c1-n1cc(-c2ccc(F)c(CNC(=O)C(F)(F)F)c2)cn1 [Ic-6] | 100 | 100 | 100 | 100 | 100 | kill in % [7]: 80%
Cn1nc(C(F)(F)C(F)(F)F)c(C(F)(F)F)c1-n1ccc(-c2ccc(F)c(CNC(=O)C3CC3)c2)n1 [Id-9] |  | 100 |  | 90 |  | efficacy in % ([2]; application rate 100 g/ha): 83%
CC(NC(=O)C1CC1)c1cccc(-c2cnn(-c3c(C(F)(F)F)c(C(F)(F)C(F)(F)F)nn3C)c2)c1 (racemic) [Ic-21] |  | 100 |  |  | 90 | 
CC(C)C(=O)NCc1cc(-c2cnn(-c3c(C(F)(F)F)c(C(F)(F)C(F)(F)F)nn3C)c2)ccc1F [Ic-28] | 100 | 100 | 90 | 100 |  | efficacy in % ([2]; application rate 100 g/ha): 100%
Cn1nc(C(F)(F)C(F)(F)F)c(C(F)(F)F)c1-n1cc(-c2ccc(F)c(CNC=O)c2)cn1 [Ic-19] | 100 |  | 100 | 100 |  | efficacy in % ([2]; application rate 500 g/ha): 83%; efficacy in % ([3]; application rate 500 g/ha): 100%; efficacy in % ([6]; application rate 500 g/ha): 90%
Cn1nc(C(F)(F)C(F)(F)F)c(C(F)(F)F)c1-n1cc(-c2cncc(CNC(=O)C3CC3)c2)cn1 [Ic-29] |  | 100 |  |  | 90 | 
Cn1nc(C(F)(F)C(F)(F)F)c(C(F)(F)F)c1-n1cc(-c2ccc(F)c(CNC(=O)c3cncnc3)c2)cn1 [Ic-27] |  | 83 | 90 | 100 | 100 | 
CC(=O)NCc1cc(-c2ccn(-c3c(C(F)(F)F)c(C(F)(F)C(F)(F)F)nn3C)n2)ccc1F [Id-4] |  | 100 |  |  |  | 
CCC(=O)NCc1cccc(-c2ccn(-c3c(C(F)(F)F)c(C(F)(F)C(F)(F)F)nn3C)n2)c1 [Id-5] |  | 100 |  |  |  | 
Cn1nc(C(F)(F)C(F)(F)F)c(C(F)(F)F)c1-n1cc(-c2ccc(F)c(CNC(=O)C3CCOC3)c2)cn1 (racemic) [Ic-9] | 100 | 100 | 100 | 100 | 90 | 
